Test results: patent publication US7365231B2, “Compound with antitumor activity and preparation method therefor” (National Taiwan University of Science & Technology, priority 2005, dated 2008)

How the values were obtained:
[1] = tested on: Colo 205 cells; test: Cell cycle analysis by flow cytometry; type: cell-based, human
Description: (§1) The cell cycle progression of Colo205, HT 29 and HCT-15 cells was examined using flow cytometry after exposure to 1, 2, 4 or 8 μM DPA for 72 hours. […] HT-29 cells were mainly in G0/G1 phase (84.1-86.0%), and only a few percent of cells in S phase (7.4-8.0%) after exposure to 4 μM DPA for 48-72 h. […] The G0/G1 arrest was not induced in the HCT-15 cells treated with 1-8 μM DPA for 24-72 h. […] DPA exerted the dose specific effect for the induced G0/G1 arrest on Colo 205 cells. […] In addition, we noted that DPA-mediated accumulation of Colo205 and HT 29 cells in G1 phase (>80%) was similar to that of DPD (Anti-Cancer Drug 2004; 15:277-80). It is likely that the induced G1-arrest without concomitant apoptosis on Colo 205 and HT 29 colon cancer cells is one unique property of structure I.

[2] = tested on: HCT-15 cells; test: Cell cycle analysis by flow cytometry; type: cell-based, human
Description: as §1

[3] = tested on: Colo 205 cells; test: Reversibility of DPA-induced growth inhibition after drug withdrawal; type: cell-based, human
Description: To further investigate whether the DPA-induced growth inhibition was reversible, Colo 205 cells were treated with DPA for 72 hours, and the cells were withdrawn from DPA by culturing in fresh medium for another 48 or 72 hours. […] One possibility is that the relatively lipophilic nature of DPA or DPD reduced cellular efflux after the initial drug exposure. It is inferred that the irreversible property of adamantane and diamantane derivatives provides an advantage to prolong the anticancer activity.

[4] = tested on: human colon cancer Colo 205 xenografts; test: In vivo antitumor effect of DPA and/or CPT-11, xenografts; set-up: species or system ICR nude mice; details: DPA 20 mg/kg i.p. twice a week; end of experiment
Description: To further investigate whether DPA could enhance the antitumoral activity of the chemotherapeutic agent CPT-11, Colo 205 cells were treated with DPA or DPA in combination with CPT-11. Cancer cells were transplanted into ICR nude mice, and when the tumors were palpable (30˜35 mm^3), the mice were treated either with vehicle control, CPT-11 or DPA (20 mg/kg, i.p., twice a week). Tumour volume(V) was calculated according to the following formula: V(mm^3)=0.4AB^2, where A and B are the longest diameter and the shortest diameter, respectively (Cancer Res. 1966; 26:1787-1800). […] The tumor size of DPA in combination with CPT-11-treated mice was a 73% decrease as compared with that of CPT-11-treated mice.

Structure (SMILES): Nc1ccc(Oc2ccc(C3(c4ccc(Oc5ccc(N)c(O)c5)cc4)C4CC5CC(C4)CC3C5)cc2)cc1O [DPA, 2,2-bis(4-(4-amino-3-hydroxyphenoxy)phenyl)adamantane]
- accumulation of cells in G1 phase ([1]; Colo205): > 80%
- G2/M(%) ([1]; Colo 205, DPA 1 μM, 72 h): 10.1%
- S(%) ([1]; Colo 205, DPA 1 μM, 72 h): 29.6%
- cells in G2/M phase ([2]; 8 μM DPA for 24-48 h): 6.9-7.6%
- G0/G1 arrest ([2]; 1-8 μM DPA for 24-72 h): not induced
- G0/G1(%) ([2]; DPA 1 μM, 24 h): 31.4%
- G2/M(%) ([2]; DPA 1 μM, 24 h): 18.1%
- S(%) ([2]; DPA 1 μM, 24 h): 50.6%
- G0/G1(%) ([2]; DPA 1 μM, 48 h): 39.1%
- G2/M(%) ([2]; DPA 1 μM, 48 h): 15.8%
- S(%) ([2]; DPA 1 μM, 48 h): 45.1%
- G0/G1(%) ([2]; DPA 1 μM, 72 h): 51.8%
- G2/M(%) ([2]; DPA 1 μM, 72 h): 13.2%
- S(%) ([2]; DPA 1 μM, 72 h): 35.0%
- G0/G1(%) ([2]; DPA 2 μM, 24 h): 31.8%
- G2/M(%) ([2]; DPA 2 μM, 24 h): 14.2%
- S(%) ([2]; DPA 2 μM, 24 h): 54.0%
- G0/G1(%) ([2]; DPA 2 μM, 48 h): 35.2%
- G2/M(%) ([2]; DPA 2 μM, 48 h): 16.0%
- S(%) ([2]; DPA 2 μM, 48 h): 48.8%
- G0/G1(%) ([2]; DPA 2 μM, 72 h): 49.2%
- G2/M(%) ([2]; DPA 2 μM, 72 h): 14.3%
- S(%) ([2]; DPA 2 μM, 72 h): 36.6%
- G0/G1(%) ([2]; DPA 4 μM, 24 h): 30.6%
- G2/M(%) ([2]; DPA 4 μM, 24 h): 11.2%
- S(%) ([2]; DPA 4 μM, 24 h): 58.2%
- G0/G1(%) ([2]; DPA 4 μM, 48 h): 30.5%
- G2/M(%) ([2]; DPA 4 μM, 48 h): 14.3%
- S(%) ([2]; DPA 4 μM, 48 h): 55.3%
- G0/G1(%) ([2]; DPA 4 μM, 72 h): 40.8%
- G2/M(%) ([2]; DPA 4 μM, 72 h): 17.2%
- S(%) ([2]; DPA 4 μM, 72 h): 42.1%
- G0/G1(%) ([2]; DPA 8 μM, 24 h): 39.6%
- G2/M(%) ([2]; DPA 8 μM, 24 h): 6.9%
- S(%) ([2]; DPA 8 μM, 24 h): 53.5%
- G0/G1(%) ([2]; DPA 8 μM, 48 h): 37.5%
- G2/M(%) ([2]; DPA 8 μM, 48 h): 7.6%
- S(%) ([2]; DPA 8 μM, 48 h): 54.9%
- G0/G1(%) ([2]; DPA 8 μM, 72 h): 38.2%
- G2/M(%) ([2]; DPA 8 μM, 72 h): 11.9%
- S(%) ([2]; DPA 8 μM, 72 h): 49.9%
- proliferation activity after removal of DPA ([3]; 1 μM DPA 72 h, then 48-72 hours in fresh medium): reversed and returned to control level
- reversal of growth inhibition after removal of DPA ([3]; 2, 4 or 8 μM DPA 72 h, then 48-72 hours in fresh medium): no reversal effect
- cell viability ([3]; haemocytometer, treated cells except 8 μM DPA): > 90%
- tumor size compared to control groups [4]: significantly (P<0.05) decreased
